Data taken from patent publication US20240335395A1, “COMPOSITIONS AND METHODS FOR PREVENTING AND/OR TREATING DISEASE ASSOCIATED WITH IL-23 EXPRESSION” (ALLSPIM, priority 2021, published 2024).

How the values were obtained:
SOD1 G93A mice = assay: SOD1 G93A mouse model of ALS, motor symptoms and neuroscore; format: in vivo; details: 50 mg/kg daily oral in gel from 21 days post-natal
Text: Animals. The ALS mouse model is the SOD1 G93A (Gurney et al. Science 1994). Mutations in the SOD1 gene represent about 20% of the mutations in human familiar forms of ALS. Mice with multiple human transgenes with the G93A mutation in the SOD1 gene develop a progressive muscle paralysis and a loss of spinal motor neurons as in human patients. We used the high expressor lines (Jackson Labs #002726 B6SJL-Tg(SOD1*G93A)1 Gur/J) that contains at least 15 copies of the human transgene. SOD1 G93A males are crossed with B6/SJL females (Janvier Labs #SH-B6SJL-F1; hybrid model B6SJLF1/JRj). Genotyping allows us to identify the transgenic animals in the litter.
Symptoms progression is assessed using a neuroscore grid as in Hatzipetros et al. JoVE 2015. Mice are euthanized when they are transitioning from neuroscore 2 to neuroscore 3 (full paralysis of one hindlimb). This transition happens about 120-130 days post-natal in our breeding conditions and in the absence of the 2,4-D treatment. Non transgenic littermates are used as control animals.
Chronic administration of 2,4-D in mice. […] Daily delivery of the drug for a long time period (about 100 days) is not compatible with IP injections for ethics considerations and also because of the infection risk. We then rely on oral administration in a gel using a method modified from Lei Zhang, Star Protocol 2021. Briefly, the gel is produced by mixing alimentary gelatin (8%, Vahiné) in a 2% sucralose solution (Myprotein, zero calory, no flavor) and by heating this mixture at 60° C. for 20-30 minutes until clarification. An artificial flavor, for instance “cheese flavor” (Arôme Alimentaire Emmental 58 ml Cuisineaddict), 2 microliters/milliliter), may be added to this preparation along with some kibble grinds to powder (the same kibble as the one used in the house facility for ordinary diet) for improving palatability. This mixture is then aliquoted in individual daily portions of 315 microliters. 1 to 2 mg of 2,4-D (depending on the mouse body weight, 50 mg of 2,4-D per kg of mouse body weight) is added to each portion while the mixture is still warm (2,4-D is not added in the vehicle portions given to untreated animals). This mixture solidifies in a jelly form upon cooling. The gel can be kept in a fridge (4° C.) for 6 days. We usually have 4 mice (males or females) per cage. To feed the mice with 2,4-D we remove the ordinary kibbles (sometime 4 hours before) and we physically isolated each mouse in a corner of the cage with a plexiglass cross placed in the cage to separate four compartments. One portion jelly is placed at the bottom of each compartment until the mouse has eaten it. In the case the mouse has not eaten the full portion after 3 hours, we evaluate how much was taken by the mouse. […]

[1] = system: laser-induced choroidal neovascularization (CNV); assay: Laser-induced CNV in rats, fluorescein angiography leakage grading; format: in vivo, rat; details: 14 days, intravitreous injection
Experimental: Animals. All experiments were performed in accordance with the European Communities Council Directive 86/609/EEC and approved by local ethical committees (#2541-2015110210279792 v3). Six- to eight-week-old male Long Evans rats from the Janvier Breeding Center (Le Genest-Saint-Isle, France) were used to create a rat model of choroidal neovascularization (CNV) used as a model of human wet macular degeneration.
Laser-induced CNV. After anesthesia and dilation of the pupils, coverslips were positioned on the cornea as a contact glass. For rats, six or eight burns were performed 2 to 3 optic disc diameters away from the optic nerve with an Argon laser (532 nm) mounted on a slit lamp (175 mW, 0.1 s and 50 μm). Both eyes of animals received laser induction. The presence of a bubble witnessed the rupture of Bruch's membrane and confirmed a successful laser impact.
Treatments. After laser photocoagulation, rats were divided into 3 treatment groups: —Intravitreous injection (IVT) of 2,4-D (identified as “new treatment”, New T), —IVT of vehicle (PBS), —IVT of triamcinolone acetonide (Kenacort® 40 mg/ml; TA) (n=12 rats per group). The IVT consisted of 5 μl injected with a 31G needle mounted on a micro-thin (100 μl) syringe posterior to the limbus, avoiding the lens. IVT was performed immediately after laser had been performed. Animals were sacrificed at 7 days (n=6 per group- and at 16 days (n=6 per group).
Fluorescein angiography (FA). FA was performed 14 days after laser induction. […] Early and late phase angiograms were recorded 1-3 and 5-7 min respectively after fluorescein injection. […] Angiographic scores were established by 2 blinded observers according to the following criteria: grade 0, no hyper-fluorescence; grade 1, slight hyper-fluorescence with no increase in intensity nor in size; grade 2, hyper-fluorescence increasing in intensity but not in size; grade 3, hyper-fluorescence increasing both in intensity and size; grade 4, hyper-fluorescence size increase more than 2-diameter of the initial laser burn.

IL-17 = assay: IL-17A production in anti-CD3/CD28-stimulated mouse spleen cells (ELISA); format: cell-based; details: for production and release of IL-17 in supernatant: 72 h
Experimental: Briefly, before the experiment, 48-well plates were coated with 150 μl/well hamster anti-mouse CD3 (Clone 145-2C11, NA/LE, BD PHM, USA) at a concentration of 10 μg/ml and incubated overnight at 4° C. The next day, a C57BL/6 mouse was euthanized by cervical dislocation, and its spleen was aseptically dissected using sterile techniques. The harvested spleen was placed in a small Petri dish containing 10 ml of ice-cold PBS/FBS, ground using 2 frosted microscope slides, and filtered through a piece of 40 μm nylon material to yield a single cell suspension. Thereafter, the spleen cell suspension was carefully dispensed onto mouse lymphocyte separation medium (TBD Science Inc, Tianjin, China) and the lymphocytes were collected after density gradient centrifugation. After washing and cell counting, cell density was adjusted to 1 million cells/mL with RPMI 1640 (Gibco) plus 10% FCS and 1 μg/mL anti-mouse CD28 (BD PHM). […] After stimulation for 72 hours with anti-CD3 and anti-CD28 monoclonal antibodies, culture supernatants were collected and IL-17A measured with an IL-17A mouse ELISA kit (Thermo Fisher Scientific Inc.) according to the manufacturer's instructions. Cell count and viability were also evaluated with 0.4% trypan blue (Thermo Fisher Scientific Inc.) staining.

COc1cc(O)c(OC)c(O)c1C(=O)/C=C/c1ccccc1 [2,4-D, 2′,4′-dihydroxy-3′,6′-dimethoxychalcone]
neuroscore progression (from 0 to 3) (SOD1 G93A mice): tends to slow down
time at which neuroscore 3 is reached (survival time) (SOD1 G93A mice): tends to be delayed
time at which the axial tonus is lost, compared with vehicle (SOD1 G93A mice): significantly extends
time at which the full hindlimb extension is lost, compared with vehicle (SOD1 G93A mice): significantly extends
percentage of impact graded 0-1 [1]: 68%
percentage of impact in grade 3-4 (intense leakage) [1]: 13%
grading score of impacts compared to vehicle ([1]; Dunn's multiple comparison): significantly reduced
production and release of IL-17 in supernatant (IL-17; 1 μg/ml): significantly suppressed
production and release of IL-17 in supernatant (IL-17; 5 μg/ml): significantly suppressed
suppression of IL-17 on adding recombinant mouse IL-23 (IL-17; recombinant mouse IL-23 5 ng/ml): completely reversed
